Measured values from patent US20230159931A1, “TARGETING THE PALMOTYLATION/DEPALMOTYLATION CYCLE TO TREAT INFLAMMATORY DISEASES” (CORNELL UNIVERSITY, priority 2020, published 2023).

Tests used:
[1] = test system: Bone marrow-derived macrophages (BMDM); experiment: Cytokine mRNA expression during LPS priming of BMDM (qRT-PCR); assay type: cell-based; settings: 100 ng/mL LPS, 2-BP 10 μM or 25 μM, 6 hours
Method: (§1) FIGS. 12A-12D. 2-BP, a pan-DHHC inhibitor, decreases cytokines mRNA expression during the LPS priming step of inflammasome activation. Bone marrow-derived macrophages (BMDM) were treated with 100 ng/mL lipopolysaccharide (LPS), which can prime BMDM for inflammasome activation. A small molecule that inhibits all the DHHC family of palmitoyltransferases (DHHCs), 2-bromopalmitate (2-BP), was added at 10 μM or 25 μM together with LPS. The cells were cultured with LPS and 2-BP for 6 hours and then the mRNA levels of several pro-inflammatory cytokines: (A) IL-1 beta, (B) IL-6, (C) IL-12 beta, and (D) IL-18, were measured by quantitative reverse transcription PCR (qRT-PCR).
as §1, with “Bone” for “FIGS. 12A-12D. 2-BP, a pan-DHHC inhibitor, decreases cytokines mRNA expression during the LPS priming step of inflammasome activation. Bone”, “cytokines:” for “cytokines: (A)”, “beta (FIG. 12A), IL-6 (FIG. 12B),” for “beta, (B) IL-6, (C)”, “beta (FIG. 12C),” for “beta,”, “IL-18 (FIG. 12D),” for “(D) IL-18,”

NLRP3 inflammasome = experiment: NLRP3-mediated inflammasome activation in peritoneal macrophage (secreted IL-1 beta); assay type: cell-based; settings: peritoneal macrophage primed with LPS 200 ng/mL 4h; 2-BP 25 μM with ATP 5 mM or Nigericin 10 μM, 1 h
Method: (§2) FIG. 13. 2-BP affects NLRP3-mediated inflammasome activation. Peritoneal macrophage was first primed with LPS (200 ng/mL) in DMEM medium (without serum) for 4h, and then 2-BP (25 μM) and ATP (5 mM) or Nigericin (10 μM) were added to the cell culture and incubated for 1 h. ATP and nigericin are two reagents that are commonly used to activate the NLRP3 inflammasome. The activation of NLRP3 inflammasome was then monitored by measuring the level of IL-1 beta secreted to the medium.
as §2, with “Peritoneal” for “FIG. 13. 2-BP affects NLRP3-mediated inflammasome activation. Peritoneal”, “medium (FIG. 13). The data support that inhibiting DHHCs with 2-BP can decrease NLRP3 inflammasome activation.” for “medium.”

SMAD2 S-palmitoylation = SMAD2 S-palmitoylation in HEK293T cells treated with APT inhibitors (Alk14, in-gel fluorescence); assay type: cell-based, human; settings: 10 μM APT inhibitors for 24 hours; HEK293T cells with HA-DHHC7 and Flag-SMAD2
From the text: FIGS. 7A-7G. APT2 is the depalmitylase of SMAD2 and C-terminal phosphorylation of SMAD2 is S-palmitoylation independent. (A) C-terminal phosphorylation (Ser465/Ser467) levels of Flag-SMAD2 (p-SMAD2(C2)) in HEK293T cells expressing HA-tagged mouse DHHC1-23. SMAD2 was pulled down with Flag beads and subjected to western blot analyses. (B) HEK293T cells were transfected with HA-tagged DHHC7 and Flag-SMAD2 WT and C41/81S mutant plasmid and treated with Alk14. The S-palmitoylation level of immunoprecipitated SMAD2 was visualized by in-gel fluorescence and the p-SMAD2(C2) level was detected by western blot analyses. […] The S-palmitoylation level of immunoprecipitated SMAD2 was visualized by in-gel fluorescence. […] The cells were labeled with Alk14 and the S-palmitoylation of SMAD2 was determined by in-gel fluorescence. […] The cells were labeled with Alk14 and the S-palmitoylation of SMAD2 was determined by in-gel fluorescence and the p-SMAD2(C2) level was detected by western blot analyses. […]
Cells were treated with 50 μM palmitic acid analogue Alkyne 14 (Alk14) for 5 h and the collected and lysed in 1% NP-40 lysis buffer (25 mM Tris-HCl pH 8.0, 150 mM NaCl, 10% glycerol, 1% Nonidet P-40) with protease inhibitor cocktail. […] The protein concentration was determined by Bradford assay (23200, Thermo Fisher). […]

| SMILES | IL-1 beta mRNA level [1] | IL-6 mRNA level [1] | IL-12 beta mRNA level [1] | IL-18 mRNA level [1] | NLRP3 inflammasome activation (level of IL-1 beta secreted to the medium) (NLRP3 inflammasome) | SMAD2 S-palmitoylation signal (SMAD2 S-palmitoylation) |
| --- | --- | --- | --- | --- | --- | --- |
| CCCCCCCCCCCCCCC(Br)C(=O)O (stereo not drawn) [2-BP, 2-bromopalmitic acid] | decrease the mRNA levels of all these cytokines in a concentration dependent manner | decrease the mRNA levels of all these cytokines in a concentration dependent manner | decrease the mRNA levels of all these cytokines in a concentration dependent manner | decrease the mRNA levels of all these cytokines in a concentration dependent manner | decrease | – |
| CCCCCCCCCC[C@@H]1C(=O)O[C@H]1CCc1ccc(OC)c(OC)c1 [palmostatin B] | – | – | – | – | – | significantly enhanced |
